From patent publication EP0535269A1, “Pharmaceutical compositions containing thiazolidinedione derivatives” (TANABE SEIYAKU CO., LTD., priority 1991, dated 1993)

Test: Bioavailability of a solution in a water-soluble polymer: plasma levels after oral administration
Assay type: in vivo
Settings: dogs, control formulation: untreated original drug (20 µm) with equal amount of corn starch in gelatin capsule, 100 mg/Dog, HPLC (Fig. 4)
Method: 5-[(2,4-dioxothiazolidin-5-yl)methyl]-2-[(2-naphthyl)methyl]benzoxazole (3 g) was dissolved in polyethyleneglycol (average molecule weight: approximately 380-420, trade name: Macrogol-400, Sanyo Chemical Industries Ltd.) (100 ml) to provide the preparation of the present invention. Mixture of an equal amount of untreated original drug (particle size: 20 µm) and corn starch was encapsulated in a gelatin capsule to give a formulation used as a control.
Four dogs (10 - 15 kg) were used in this experiment. The preparation of the invention was administered to dogs orally at the dose of 10 mg/Dog. In the separate experiment, the control formulation was administered at 100 mg/Dog. The blood was taken from the dogs and the concentration of the active compound (I) in the plasma sample was assayed in the same manner as described in the above. The time-course of the plasma levels of the drug was plotted.
In the figure, closed circles represent the average plasma levels of the compound (I) following the administration of the solution of the invention, and semi-closed circles represent those following the administration of untreated original drug.

SMILES: O=C1NC(=O)C(Cc2ccc3oc(Cc4ccc5ccccc5c4)nc3c2)S1 (stereo not shown) [raw material, 5-[(2,4-dioxothiazolidin-5-yl)methyl]-2-[(2-naphthyl)methyl]benzoxazole]
- plasma levels of the compound (I): extremely low
